# Measurements published in article PMC2913692 (The European journal of neuroscience, 2010).
# Where two headings read alike, the source gives them in different places.
# Columns and labels:
# [1] = tested on: N-methyl-D-aspartate receptor (NMDAR), NR1 subunit coagonist site; test: whole-cell voltage clamp; assay type: cell-based, Ambystoma tigrinum
# [2] = tested on: N-methyl-D-aspartate receptor (NMDAR), NR1 subunit coagonist site; test: whole-cell voltage clamp of retinal ganglion cells; set-up: species or system Ambystoma tigrinum
# [3] = tested on: N-methyl-D-aspartate receptor (NMDAR), NR1 subunit coagonist site
smiles,measurement,setting,value
"O=C(O)c1cc(O)c2ccc(Cl)cc2n1 [7CKA, 7-chlorokynurenic acid]",% of control at 25 μM,[1],5.3 ± 1.0
N[C@H](CO)C(=O)O [D-serine],EC50,[2],3.48 ± 1.05 µM
NCC(=O)O [glycine],EC50,[3],118 ± 48.1 µM
